Target: T1, human CGT (Homo sapiens, UniProt Q16880)
T1 sequence (Q16880 21-541): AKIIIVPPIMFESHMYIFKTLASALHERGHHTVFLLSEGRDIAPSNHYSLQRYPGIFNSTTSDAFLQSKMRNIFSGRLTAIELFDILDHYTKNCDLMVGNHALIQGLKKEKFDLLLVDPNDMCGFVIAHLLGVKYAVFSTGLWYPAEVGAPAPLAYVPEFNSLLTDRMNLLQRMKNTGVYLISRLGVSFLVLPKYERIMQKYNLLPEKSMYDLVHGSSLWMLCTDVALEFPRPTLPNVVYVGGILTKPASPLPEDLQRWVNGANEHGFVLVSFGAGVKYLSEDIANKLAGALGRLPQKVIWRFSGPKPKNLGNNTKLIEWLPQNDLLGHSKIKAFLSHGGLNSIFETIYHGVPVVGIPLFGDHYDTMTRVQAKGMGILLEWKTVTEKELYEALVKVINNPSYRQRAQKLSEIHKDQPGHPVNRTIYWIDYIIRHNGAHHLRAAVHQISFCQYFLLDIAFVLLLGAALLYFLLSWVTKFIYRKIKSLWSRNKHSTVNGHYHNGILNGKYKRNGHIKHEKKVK
Experiment: Assay 1: CGT Enzymatic Assay (RapidFire/MS/MS, 0.01% Tween 80)
Type: biochemical
Details: Table 1, Compounds of Formula (I) and Formula (II); CGT enzymatic assay, C6-NBD-dihydro-galactosylceramide readout; read-out: IC50

| IC50 [µM] | SMILES |
| --- | --- |
| < 1 | Cc1ccc(N2C(=O)N(c3ccc(Cl)cc3)C3(COC3)C2(O)c2cccc(C#N)c2)cc1 (stereo not shown) [Compound 298, 3-(5-(4-chlorophenyl)-8-hydroxy-6-oxo-7-(p-tolyl)-2-oxa-5,7-diazaspiro[3.4]octan-8-yl)benzonitrile] |
| < 1 | Cc1ccc(N2C(=O)N(c3ccc(Cl)cc3)C3(COC3)C2(O)c2cccc(OC(F)(F)F)c2)cc1 (stereo not shown) [Compound 299, 5-(4-chlorophenyl)-8-hydroxy-7-(p-tolyl)-8-(3-(trifluoromethoxy)phenyl)-2-oxa-5,7-diazaspiro[3.4]octan-6-one] |
| 1 to 10 | N#Cc1cccc(C2(O)N(c3ccc(Cl)cc3)C(=O)N(c3ccc(Cl)cc3)C23CNC3)c1 (stereo not shown) [Compound 300, 3-(5,7-bis(4-chlorophenyl)-8-hydroxy-6-oxo-2,5,7-triazaspiro[3.4]octan-8-yl)benzonitrile 2,2,2-trifluoroacetate] |
| < 1 | CN1CC2(C1)N(c1ccc(Cl)cc1)C(=O)N(c1ccc(Cl)cc1)C2(O)c1cccc(C#N)c1 (stereo not shown) [Compound 301, 3-(5,7-bis(4-chlorophenyl)-8-hydroxy-2-methyl-6-oxo-2,5,7-triazaspiro[3.4]octan-8-yl)benzonitrile 2,2,2-trifluoroacetate] |
| < 1 | O=C1N(c2ccc(C(F)(F)F)cc2)C2(COC2)C(O)(c2cccc(OC(F)(F)F)c2)N1c1ccc(C(F)(F)F)cc1 (stereo not shown) [Compound 302, 8-hydroxy-8-(3-(trifluoromethoxy)phenyl)-5,7-bis(4-(trifluoromethyl)phenyl)-2-oxa-5,7-diazaspiro[3.4]octan-6-one] |
| < 1 | N#Cc1cccc(C2(O)N(c3ccc(C(F)(F)F)cc3)C(=O)N(c3ccc(C(F)(F)F)cc3)C23COC3)c1 (stereo not shown) [Compound 303, 3-(8-hydroxy-6-oxo-5,7-bis(4-(trifluoromethyl)phenyl)-2-oxa-5,7-diazaspiro[3.4]octan-8-yl)benzonitrile] |
| < 1 | O=C1N(c2ccc(Cl)cc2)C2(CC(F)(F)C2)C(O)(c2cccc(OC(F)(F)F)c2)N1c1ccc(Cl)cc1 (stereo not shown) [Compound 304, 5,7-bis(4-chlorophenyl)-2,2-difluoro-8-hydroxy-8-(3-(trifluoromethoxy)phenyl)-5,7-diazaspiro[3.4]octan-6-one] |
| < 1 | N#Cc1cccc(C2(O)N(c3ccc(Cl)cc3)C(=O)N(c3ccc(Cl)cc3)C23CC(F)(F)C3)c1 (stereo not shown) [Compound 305, 3-(5,7-bis(4-chlorophenyl)-2,2-difluoro-8-hydroxy-6-oxo-5,7-diazaspiro[3.4]octan-8-yl)benzonitrile] |
| < 1 | N#Cc1cc(C#N)cc(C2(O)N(c3ccc(Cl)cc3)C(=O)N(c3ccc(Cl)cc3)C23COC3)c1 (stereo not shown) [Compound 306, 5-(5,7-bis(4-chlorophenyl)-8-hydroxy-6-oxo-2-oxa-5,7-diazaspiro[3.4]octan-8-yl)isophthalonitrile] |

Same assay, conditions: Table 1, Compounds of Formula (I) and Formula (II); CGT enzymatic assay; read-out: IC50

| SMILES | IC50 [µM] |
| --- | --- |
| O=C1N(c2ccc(Br)cc2)CC(O)(c2ccccc2)N1c1ccc(Br)cc1 (stereo not shown) [Example 1] | 1 to 10 |
| CC1(O)CN(c2ccc(Br)cc2)C(=O)N1c1ccc(Br)cc1 (stereo not shown) [Example 2, 1,3-bis(4-bromophenyl)-4-hydroxy-4-methylimidazolidin-2-one] | > 50 |
| Cc1c(-c2cccc(C#N)c2)n(-c2ccc(Cl)cc2)c(=O)n1-c1ccc(Cl)cc1 [Example 3] | < 1 |
| CCC1(O)CN(c2ccc(Br)cc2)C(=O)N1c1ccc(Br)cc1 (stereo not shown) [Example 4, 1,3-bis(4-bromophenyl)-4-ethyl-4-hydroxyimidazolidin-2-one] | 10 to 50 |
| O=C1N(c2ccc(Br)cc2)CC(O)(c2ccc(Cl)s2)N1c1ccc(Br)cc1 (stereo not shown) [Example 5, 1,3-bis(4-bromophenyl)-4-(5-chlorothiophen-2-yl)-4-hydroxyimidazolidin-2-one] | 10 to 50 |
| CCCCC1(O)CN(c2ccc(Br)cc2)C(=O)N1c1ccc(Br)cc1 (stereo not shown) [Example 6, 1,3-bis(4-bromophenyl)-4-butyl-4-hydroxyimidazolidin-2-one] | > 50 |
| O=C1N(c2ccc(Br)cc2)CC(O)(c2cccs2)N1c1ccc(Br)cc1 (stereo not shown) [Example 7, 1,3-bis(4-bromophenyl)-4-hydroxy-4-(thiophen-2-yl)imidazolidin-2-one] | 1 to 10 |
| O=C1N(c2ccc(Br)cc2)CC(O)(c2cc3ccccc3s2)N1c1ccc(Br)cc1 (stereo not shown) [Example 8, 4-(benzo[b]thiophen-2-yl)-1,3-bis(4-bromophenyl)-4-hydroxyimidazolidin-2-one] | 50 to 100 |
| O=C1N(c2ccc(Br)cc2)CC(O)(c2ccccn2)N1c1ccc(Br)cc1 (stereo not shown) [Example 9, 1,3-bis(4-bromophenyl)-4-hydroxy-4-(pyridin-2-yl)imidazolidin-2-one] | > 50 |
| O=C1N(c2ccc(Br)cc2)CC(O)(c2nc3ccccc3s2)N1c1ccc(Br)cc1 (stereo not shown) [Example 10, 4-(benzo[d]thiazol-2-yl)-1,3-bis(4-bromophenyl)-4-hydroxyimidazolidin-2-one] | > 50 |
| O=C1N(c2ccc(F)cc2)CC(O)(c2ccccc2)N1c1ccc(F)cc1 (stereo not shown) [Example 11, 1,3-bis(4-fluorophenyl)-4-hydroxy-4-phenylimidazolidin-2-one] | > 50 |
| O=C1N(c2ccc(Cl)cc2)CC(O)(c2ccccc2)N1c1ccc(Cl)cc1 (stereo not shown) [Example 12, 1,3-bis(4-chlorophenyl)-4-hydroxy-4-phenylimidazolidin-2-one] | 1 to 10 |
| C[C@@H]1N(c2ccc(Br)cc2)C(=O)N(c2ccc(Br)cc2)C1(O)c1ccccc1 (stereo partly shown) [Example 13-1] | < 1 |
| CC1N(c2ccc(Br)cc2)C(=O)N(c2ccc(Br)cc2)C1(O)c1ccccc1 (stereo not shown) [Example 13] | < 1 |
| Cc1ccc(C2(O)CN(c3ccc(Br)cc3)C(=O)N2c2ccc(Br)cc2)cc1 (stereo not shown) [Example 23, 1,3-bis(4-bromophenyl)-4-hydroxy-4-(p-tolyl)imidazolidin-2-one] | > 50 |
| CCC1N(c2ccc(Br)cc2)C(=O)N(c2ccc(Br)cc2)C1(O)c1ccccc1 (stereo not shown) [Example 25, 1,3-bis(4-bromophenyl)-5-ethyl-4-hydroxy-4-phenylimidazolidin-2-one] | < 1 |
| CC[C@@H]1N(c2ccc(Br)cc2)C(=O)N(c2ccc(Br)cc2)C1(O)c1ccccc1 (stereo partly shown) [Example 25-1] | < 1 |
| CC[C@H]1N(c2ccc(Br)cc2)C(=O)N(c2ccc(Br)cc2)C1(O)c1ccccc1 (stereo partly shown) [Example 25-2] | < 1 |

Further lines, results first:

| IC50 [µM] | SMILES |
| --- | --- |
| > 50 | Cc1ccccc1C1(O)CN(c2ccc(Br)cc2)C(=O)N1c1ccc(Br)cc1 (stereo not shown) [Example 14, 1,3-bis(4-bromophenyl)-4-hydroxy-4-(o-tolyl)imidazolidin-2-one] |
| > 50 | O=C1N(c2ccc(C(F)(F)F)cc2)CC(O)(c2ccccc2)N1c1ccc(C(F)(F)F)cc1 (stereo not shown) [Example 15, 4-hydroxy-4-phenyl-1,3-bis(4-(trifluoromethyl)phenyl)imidazolidin-2-one] |
| 1 to 10 | Cc1cccc(C2(O)CN(c3ccc(Br)cc3)C(=O)N2c2ccc(Br)cc2)c1 (stereo not shown) [Example 16, 1,3-bis(4-bromophenyl)-4-hydroxy-4-(m-tolyl)imidazolidin-2-one] |
| 1 to 10 | Cc1ccc(N2CC(O)(c3ccccc3)N(c3ccc(C)cc3)C2=O)cc1 (stereo not shown) [Example 17, 4-hydroxy-4-phenyl-1,3-di-p-tolylimidazolidin-2-one] |
| 10 to 50 | O=c1n(-c2ccc(Br)cc2)c2c(n1-c1ccc(Br)cc1)CCCC2 [Example 18] |
| 10 to 50 | O=C1N(c2ccc(Br)cc2)CC(O)(c2ccc(Cl)cc2)N1c1ccc(Br)cc1 (stereo not shown) [Example 19, 1,3-bis(4-bromophenyl)-4-(4-chlorophenyl)-4-hydroxyimidazolidin-2-one] |
| > 50 | O=C1N(c2ccccc2)CC(O)(c2ccccc2)N1c1ccc(Br)cc1 (stereo not shown) [Example 20, 3-(4-bromophenyl)-4-hydroxy-1,4-diphenylimidazolidin-2-one] |
| > 50 | O=C1N(c2ccccc2)CC(O)(c2ccccc2)N1c1ccccc1 (stereo not shown) [Example 21, 4-hydroxy-1,3,4-triphenylimidazolidin-2-one] |
| > 50 | CCCc1c(CCC)n(-c2ccc(Br)cc2)c(=O)n1-c1ccc(Br)cc1 [Example 22, 1,3-bis(4-bromophenyl)-4,5-dipropyl-1,3-dihydro-2H-imidazol-2-one] |
| > 50 | O=C1N(c2ccc(Br)cc2)CC(O)(c2ccc3ccccc3c2)N1c1ccc(Br)cc1 (stereo not shown) [Example 24, 1,3-bis(4-bromophenyl)-4-hydroxy-4-(naphthalen-2-yl)imidazolidin-2-one] |
| 50 to 100 | OC1(c2ccccc2)CN(c2ccc(Br)cc2)C(=S)N1c1ccc(Br)cc1 (stereo not shown) [Example 26, 1,3-bis(4-bromophenyl)-4-hydroxy-4-phenylimidazolidine-2-thione] |
| 10 to 50 | CCCc1c(C(=O)c2ccccc2)n(-c2ccc(Cl)cc2)c(=O)n1-c1ccc(Cl)cc1 [Example 27, 4-benzoyl-1,3-bis(4-chlorophenyl)-5-propyl-1,3-dihydro-2H-imidazol-2-one] |
| 10 to 50 | O=C1N(c2ccc(Br)cc2)CC(O)(c2ccccc2)N1c1ccccc1 (stereo not shown) [Example 28, 1-(4-bromophenyl)-4-hydroxy-3,4-diphenylimidazolidin-2-one] |
| < 1 | Cc1cccc(C2(O)[C@H](C)N(c3ccc(Br)cc3)C(=O)N2c2ccc(Br)cc2)c1 (stereo partly shown) [Example 29-1] |
| < 1 | Cc1cccc(C2(O)[C@@H](C)N(c3ccc(Br)cc3)C(=O)N2c2ccc(Br)cc2)c1 (stereo partly shown) [Example 29-2] |
| 1 to 10 | COc1cccc(C2(O)CN(c3ccc(Br)cc3)C(=O)N2c2ccc(Br)cc2)c1 (stereo not shown) [Example 30, 1,3-bis(4-bromophenyl)-4-hydroxy-4-(3-methoxyphenyl)imidazolidin-2-one] |
